Test [1] addresses T1, recombinant human ACC2 (rhACC2) (Homo sapiens, UniProt O00763, V2141I).
T1 construct: a full length Cytomax clone of ACC2 was purchased from Cambridge Bioscience Limited; made in house; host or cells: CHO cells (tetracycline-inducible, pcDNA5 FRT TO-TOPO)
As to the kind of experiment: recombinant hACC2 Transcreener assay (ADP detection FP). Type of test: biochemical. Conditions: 50 μM ATP, minimum of n=3. On the procedure:
For example direct inhibition of ACC activity, for the compound of Formula (1) was determined using preparations of recombinant human ACC1 (rhACC1) and recombinant human ACC2 (rhACC2). Representative sequences of the recombinant human ACC1 and ACC2 that can be used in the assay are provided in FIG. 1 (SEQ ID NO. 1) and FIG. 2 (SEQ. ID NO. 2), respectively.
[3] Preparation of rhACC2. Human ACC2 inhibition was measured using purified recombinant human ACC2 (hrACC2). Briefly, a full length Cytomax clone of ACC2 was purchased from Cambridge Bioscience Limited and was sequenced and subcloned into PCDNA5 FRT TO-TOPO (Invitrogen, Carlsbad, Calif.). The ACC2 was expressed in CHO cells by tetracycline induction and harvested in 5 liters of DMEM/F12 with glutamine, biotin, hygromycin and blasticidin with 1 μg/mL tetracycline (Invitrogen, Carlsbad, Calif.). The conditioned medium containing ACC2 was then applied to a Softlink Soft Release Avidin column (Promega, Madison, Wis.) and eluted with 5 mM biotin. 4 mgs of ACC2 were eluted at a concentration of 0.05 mg/mL (determined by A280) with an estimated purity of 95% ([…]). The purified ACC2 was dialyzed in 50 mM Tris, 200 mM NaCl, 4 mM DTT, 2 mM EDTA, and 5% glycerol. The pooled protein was frozen and stored at −80° C., with no loss of activity upon thawing. For measurement of ACC2 activity and assessment of ACC2 inhibition, test compounds were dissolved in DMSO and added to the rhACC2 enzyme as a 5× stock with a final DMSO concentration of 1%.
[4] Measurement of human ACC2 inhibition. hACC2 was assayed in a Costar #3676 (Costar, Cambridge, Mass.) 384-well plate using the Transcreener ADP detection FP assay kit (Bellbrook Labs, Madison, Wis.) using the manufacturer's recommended conditions for a 50 uM ATP reaction. The final conditions for the assay were 50 mM HEPES, pH 7.2, 5 mM MgCl2, 5 mM tripotassium citrate, 2 mM DTT, 0.1 mg/mL BSA, 30 μM acetyl-CoA, 50 μM ATP, and 8 mM KHCO3. Typically, a 10 μl reaction was run for 50 min at 25° C., and 10 μl of Transcreener stop and detect buffer was added and the combination incubated at room temp for an additional 1 hour. The data was acquired on an Envision Fluorescence reader (Perkinelmer) using a 620 excitation Cy5 FP general dual mirror, 620 excitation Cy5 FP filter, 688 emission (S) and a 688 (P) emission filter.
The results using the recombinant hACC1 and recombinant hACC2 Transcreener assays described above are summarized in the table below for the Compounds of Formula (I) exemplified in the Examples above. All of the examples in both assays were run with a minimum of n=3.

Test [2] deals with T2, recombinant human ACC1 (rhACC1) (Homo sapiens, UniProt Q13085, DEL44-44).
T2 construct: infected with recombinant baculovirus containing full length human ACC1 cDNA; made in house; host or cells: SF9 insect cells (baculovirus)
Kind of test: recombinant hACC1 Transcreener assay (ADP detection FP). It is filed as biochemical. Conditions: recombinant hACC1 Transcreener assay, 50 μM ATP, minimum of n=3; read-out: hACC1. On the procedure: For example direct inhibition of ACC activity, for the compound of Formula (1) was determined using preparations of recombinant human ACC1 (rhACC1) and recombinant human ACC2 (rhACC2).
[1] Preparation of rhACC1. Two liters of SF9 cells, infected with recombinant baculovirus containing full length human ACC1 cDNA, were suspended in ice-cold lysis buffer (25 mM Tris, pH 7.5; 150 mM NaCl; 10% glycerol; 5 mM imidazole (EMD Bioscience; Gibbstown, N.J.); 2 mM TCEP (BioVectra; Charlottetown, Canada); Benzonase nuclease (10000 U/100 g cell paste; Novagen; Madison, Wis.); EDTA-free protease inhibitor cocktail (1 tab/50 mL; Roche Diagnostics; Mannheim, Germany). Cells were lysed by 3 cycles of freeze-thaw and centrifuged at 40,000×g for 40 minutes (4° C.). Supernatant was directly loaded onto a HisTrap FF crude column (GE Healthcare; Piscataway, N.J.) and eluted with an imidazole gradient up to 0.5 M over 20 column volumes (CV). ACC1-containing fractions were pooled and diluted 1:5 with 25 mM Tris, pH 7.5, 2 mM TCEP, 10% glycerol and direct loaded onto a CaptoQ (GE Healthcare) column and eluted with an NaCl gradient up to 1 M over 20 CV's. Phosphate groups were removed from purified ACC1 by incubation with lambda phosphatase (100 U/10 μM target protein; New England Biolabs; Beverly, Mass.) for 14 hours at 4° C.; okadaic acid was added (1 μM final concentration; Roche Diagnostics) to inhibit the phosphatase. Purified ACC1 was exchanged into 25 mM Tris, pH 7.5, 2 mM TCEP, 10% glycerol, 0.5 M NaCl by 6 hour dialysis at 4° C. Aliquots were prepared and frozen at −80° C.
[2] […] The final conditions for the assay were 50 mM HEPES, pH 7.2, 10 mM MgCl2, 7.5 mM tripotassium citrate, 2 mM DTT, 0.1 mg/mL BSA, 30 μM acetyl-CoA, 50 μM ATP, and 10 mM KHCO3. Typically, a 10 μl reaction was run for 120 min at 25° C., and 10 μl of Transcreener stop and detect buffer was added and the combination incubated at room temp for an additional 1 hour.
All of the examples in both assays were run with a minimum of n=3.

Structures are written as SMILES.

T1 sequence (O00763 whole entry V2141I): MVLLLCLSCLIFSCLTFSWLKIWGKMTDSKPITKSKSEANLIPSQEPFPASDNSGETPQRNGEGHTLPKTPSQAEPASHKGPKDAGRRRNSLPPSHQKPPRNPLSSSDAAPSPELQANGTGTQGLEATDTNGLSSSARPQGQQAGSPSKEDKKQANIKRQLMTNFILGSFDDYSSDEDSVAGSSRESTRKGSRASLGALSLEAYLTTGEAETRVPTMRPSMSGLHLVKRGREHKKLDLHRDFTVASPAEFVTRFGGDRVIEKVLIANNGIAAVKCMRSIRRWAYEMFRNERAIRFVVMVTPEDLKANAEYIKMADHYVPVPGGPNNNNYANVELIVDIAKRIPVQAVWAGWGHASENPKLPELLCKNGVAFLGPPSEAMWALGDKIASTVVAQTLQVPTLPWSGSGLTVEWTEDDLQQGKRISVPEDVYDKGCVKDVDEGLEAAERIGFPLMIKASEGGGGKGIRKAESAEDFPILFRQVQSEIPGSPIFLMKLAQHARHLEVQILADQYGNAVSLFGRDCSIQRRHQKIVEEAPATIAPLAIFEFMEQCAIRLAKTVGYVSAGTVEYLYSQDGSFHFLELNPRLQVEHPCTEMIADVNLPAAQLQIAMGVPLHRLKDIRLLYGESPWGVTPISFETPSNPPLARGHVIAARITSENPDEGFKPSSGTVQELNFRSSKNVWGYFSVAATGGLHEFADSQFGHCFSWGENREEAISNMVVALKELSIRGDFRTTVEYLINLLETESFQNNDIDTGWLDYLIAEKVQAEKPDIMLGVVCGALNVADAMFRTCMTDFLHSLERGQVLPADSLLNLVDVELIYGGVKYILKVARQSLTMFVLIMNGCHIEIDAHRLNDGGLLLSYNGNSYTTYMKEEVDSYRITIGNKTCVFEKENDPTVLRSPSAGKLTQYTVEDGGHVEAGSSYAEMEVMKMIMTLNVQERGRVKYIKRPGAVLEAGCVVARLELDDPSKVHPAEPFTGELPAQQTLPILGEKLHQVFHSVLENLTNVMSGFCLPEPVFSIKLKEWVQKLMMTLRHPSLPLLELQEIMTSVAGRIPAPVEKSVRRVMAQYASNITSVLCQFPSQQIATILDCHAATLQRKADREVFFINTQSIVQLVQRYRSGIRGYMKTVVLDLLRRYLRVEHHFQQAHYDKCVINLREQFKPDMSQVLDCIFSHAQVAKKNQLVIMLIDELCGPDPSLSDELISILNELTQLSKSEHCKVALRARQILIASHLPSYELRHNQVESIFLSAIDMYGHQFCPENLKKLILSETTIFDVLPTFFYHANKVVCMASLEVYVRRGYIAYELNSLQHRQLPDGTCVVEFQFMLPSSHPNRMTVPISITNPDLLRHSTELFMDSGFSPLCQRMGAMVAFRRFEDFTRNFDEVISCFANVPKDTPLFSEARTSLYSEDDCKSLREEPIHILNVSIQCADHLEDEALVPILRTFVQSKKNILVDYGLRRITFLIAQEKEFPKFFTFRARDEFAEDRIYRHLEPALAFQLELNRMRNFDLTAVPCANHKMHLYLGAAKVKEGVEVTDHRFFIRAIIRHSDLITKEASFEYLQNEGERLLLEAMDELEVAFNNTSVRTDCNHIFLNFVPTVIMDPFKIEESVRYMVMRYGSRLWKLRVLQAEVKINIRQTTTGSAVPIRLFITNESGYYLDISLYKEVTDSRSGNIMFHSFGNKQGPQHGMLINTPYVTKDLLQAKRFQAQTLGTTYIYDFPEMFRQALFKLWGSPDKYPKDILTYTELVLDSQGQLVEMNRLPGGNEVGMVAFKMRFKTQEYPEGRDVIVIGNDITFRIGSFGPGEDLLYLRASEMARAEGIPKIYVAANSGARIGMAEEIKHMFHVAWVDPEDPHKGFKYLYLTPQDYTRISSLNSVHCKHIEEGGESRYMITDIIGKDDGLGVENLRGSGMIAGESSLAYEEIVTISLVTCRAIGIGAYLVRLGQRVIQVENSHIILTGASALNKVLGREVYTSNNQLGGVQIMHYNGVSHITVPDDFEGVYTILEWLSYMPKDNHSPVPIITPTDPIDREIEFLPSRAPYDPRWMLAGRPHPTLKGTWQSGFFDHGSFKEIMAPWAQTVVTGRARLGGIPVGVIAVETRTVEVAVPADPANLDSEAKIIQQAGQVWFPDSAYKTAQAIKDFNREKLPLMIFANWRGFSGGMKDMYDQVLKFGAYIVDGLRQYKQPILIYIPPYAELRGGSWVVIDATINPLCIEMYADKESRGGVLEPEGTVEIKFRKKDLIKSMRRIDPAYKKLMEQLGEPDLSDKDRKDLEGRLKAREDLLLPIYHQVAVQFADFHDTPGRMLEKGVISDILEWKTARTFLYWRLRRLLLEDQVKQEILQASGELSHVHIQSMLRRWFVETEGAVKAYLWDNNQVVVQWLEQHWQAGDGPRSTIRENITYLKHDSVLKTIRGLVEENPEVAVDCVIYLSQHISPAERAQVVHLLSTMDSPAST

Take `CC(C)n1ncc2c1C(=O)CC1(CCN(C(=O)c3cc(-c4ccc(C(=O)O)cc4)nc(N(C)C)c3)CC1)C2` [Example 33, 4-{6-(dimethylamino)-4-[(1-isopropyl-7-oxo-1,4,6,7-tetrahydro-1′H-spiro[indazole-5,4′-piperidin]-1′-yl)carbonyl]pyridin-2-yl}benzoic acid]: the IC50 in test [1] is 8.7 nM; in test [2], 16.3 nM.
For `CC(C)n1ncc2c1C(=O)CC1(CCN(C(=O)c3cc4c(-c5ccc(C(=O)O)cc5)ncnc4[nH]3)CC1)C2` [Example 34, 4-{6-[(1-isopropyl-7-oxo-1,4,6,7-tetrahydro-1′H-spiro[indazole-5,4′-piperidin]-1′-yl)carbonyl]-7H-pyrrolo[2,3-d]pyrimidin-4-yl}benzoic acid], the IC50 was found to be 42.6 nM in test [1] and 55.8 nM in test [2].
For `CC(C)n1ncc2c1C(=O)CC1(CCN(C(=O)c3cc4c(-c5cccc(C(=O)O)c5)nccc4[nH]3)CC1)C2` [Example 35, 3-{2-[(1-isopropyl-7-oxo-1,4,6,7-tetrahydro-1′H-spiro[indazole-5,4′-piperidin]-1′-yl)carbonyl]-1H-pyrrolo[3,2-c]pyridin-4-yl}benzoic acid] the same measures were 12.5 nM and 32.6 nM.
Turning to `CC(C)n1ncc2c1C(=O)CC1(CCN(C(=O)c3cc4c(-c5cccc(C(=O)O)c5)ncnc4[nH]3)CC1)C2` [Example 36, 3-{6-[(1-isopropyl-7-oxo-1,4,6,7-tetrahydro-1′H-spiro[indazole-5,4′-piperidin]-1′-yl)carbonyl]-7H-pyrrolo[2,3-d]pyrimidin-4-yl}benzoic acid], the IC50 turned out to be 29.3 nM in test [1] and 44.4 nM in test [2].
As for `CC(C)n1ncc2c1C(=O)CC1(CCN(C(=O)c3cc(-c4ccc(C(=O)O)cc4)c4cc[nH]c4c3)CC1)C2` [Example 37, 4-{6-[(1-isopropyl-7-oxo-1,4,6,7-tetrahydro-1′H-spiro[indazole-5,4′-piperidin]-1′-yl)carbonyl]-1H-indol-4-yl}benzoic acid], the IC50 in test [1] was 3.2 nM; in test [2], 6.6 nM.
For `CC(C)n1ncc2c1C(=O)CC1(CCN(C(=O)c3cc4c(-c5ccc(C(=O)O)cc5)cncc4[nH]3)CC1)C2` [Example 38, 4-{2-[(1-isopropyl-7-oxo-1,4,6,7-tetrahydro-1′H-spiro[indazole-5,4′-piperidin]-1′-yl)carbonyl]-1H-pyrrolo[2,3-c]pyridin-4-yl}benzoic acid] the same measures were 19.9 nM and 33.5 nM.
Consider `CC(C)n1ncc2c1C(=O)CC1(CCN(C(=O)c3cc(-c4cccc(C(=O)O)c4)c4cc[nH]c4c3)CC1)C2` [Example 39, 3-{6-[(1-isopropyl-7-oxo-1,4,6,7-tetrahydro-1′H-spiro[indazole-5,4′-piperidin]-1′-yl)carbonyl]-1H-indol-4-yl}benzoic acid], for which the results for the IC50 in test [1] and in test [2] were 29.8 nM and 29.1 nM, respectively.
For the compound `CC(C)n1ncc2c1C(=O)CC1(CCN(C(=O)c3cc4c(-c5cccc(C(=O)O)c5)cncc4[nH]3)CC1)C2` [Example 40, 3-{2-[(1-isopropyl-7-oxo-1,4,6,7-tetrahydro-1′H-spiro[indazole-5,4′-piperidin]-1′-yl)carbonyl]-1H-pyrrolo[2,3-c]pyridin-4-yl}benzoic acid], the IC50 came to 6.1 nM in test [1] and 10.2 nM in test [2].
Consider `CC(C)n1ncc2c1C(=O)CC1(CCN(C(=O)c3cc4ccc(-c5cccc(C(=O)O)c5)cc4[nH]3)CC1)C2` [Example 41, 3-{2-[(1-isopropyl-7-oxo-1,4,6,7-tetrahydro-1′H-spiro[indazole-5,4′-piperidin]-1′-yl)carbonyl]-1H-indol-6-yl}benzoic acid], for which the IC50 in test [1] stood at 15.2 nM; in test [2], 8.6 nM.
For the compound `CC(C)n1ncc2c1C(=O)CC1(CCN(C(=O)c3ccc(-c4ccc(C(=O)O)cc4)nc3NCC(F)(F)F)CC1)C2` [Example 42, 4-{5-[(1-isopropyl-7-oxo-1,4,6,7-tetrahydro-1′H-spiro[indazole-5,4′-piperidin]-1′-yl)carbonyl]-6-[(2,2,2-trifluoroethyl)amino]pyridin-2-yl}benzoic acid], the figures for the IC50 in test [1] and in test [2] were 30.4 nM and 39.9 nM, respectively.

Source of the values: patent US11673890B2, “N1-pyrazolospiroketone acetyl-CoA carboxylase inhibitors” (Pfizer Inc., priority 2010, dated 2023).
